The record followed here is PubChem BioAssay (NCI).

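In this assay, cells in 96-well plates receive the compound at five concentrations for 48 hours. Endpoints are linearly interpolated between the surrounding concentrations. TGI: total growth inhibition.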

Test systems include SF-268 CNS; MDA-MB-231 breast; SN12C renal; MCF7 breast; NCI/ADR-RES ovarian; SNB-19 CNS; HOP-62 NSCLC; UACC-62 melanoma; DU-145 prostate; OVCAR-4 ovarian.
What all share (experiment): NCI anticancer screen, dose series, 48 h

Regarding `COC(=O)Cc1cc(O)c(C/C=C(\C)CC/C=C(\C)C(O)C(=O)C=C(C)C)cc1O` (stereo not given), the TGI in the assay with SF-268 CNS was found to be 40.6 µM; in the assay with MDA-MB-231 breast, 78.3 µM; in the assay on SN12C renal, 58 µM; in the assay with MCF7 breast, 89.5 µM; with NCI/ADR-RES ovarian, 58.4 µM; in the assay with SNB-19 CNS, 86 µM. Further, the TGI in the assay on HOP-62 NSCLC was 41.6 µM; with UACC-62 melanoma it was 44.4 µM; in the assay on DU-145 prostate, > 100 µM; in the assay on OVCAR-4 ovarian it was > 100 µM.

On to `O=C(O)/C=N\Nc1nc2ccccc2[nH]1`, for which the TGI in the assay with SF-268 CNS, in the assay on MDA-MB-231 breast, in the assay with SN12C renal, in the assay with MCF7 breast, with NCI/ADR-RES ovarian and in the assay on SNB-19 CNS was > 100 µM each time. Also, the TGI in the assay on HOP-62 NSCLC, in the assay with UACC-62 melanoma, with DU-145 prostate and with OVCAR-4 ovarian was > 100 µM each time.

As for `Cc1cc(N(CCC#N)CCC#N)ccc1/C(N=Nc1ccc([N+](=O)[O-])cc1)=N\NC(=O)c1cc(Cl)ccc1C(=O)c1ccccc1`, the TGI is 42.3 µM with SF-268 CNS; 91 µM in the assay with MDA-MB-231 breast; > 100 µM in the assay with SN12C renal; 26.1 µM in the assay on MCF7 breast; 50.9 µM in the assay on NCI/ADR-RES ovarian; > 100 µM with SNB-19 CNS. The TGI in the assay on HOP-62 NSCLC is > 100 µM; in the assay with UACC-62 melanoma, 36.9 µM; in the assay with DU-145 prostate, 56.8 µM; in the assay on OVCAR-4 ovarian it was 95 µM.

For `COCCOCc1nc(C#N)c(N)o1`, the TGI with SF-268 CNS, in the assay on MDA-MB-231 breast, in the assay with SN12C renal, in the assay on MCF7 breast, in the assay with NCI/ADR-RES ovarian and in the assay on SNB-19 CNS was > 100 µM in each case. The TGI in the assay with HOP-62 NSCLC, with UACC-62 melanoma, in the assay with DU-145 prostate and in the assay on OVCAR-4 ovarian was > 100 µM throughout.

Take `CCn1c(-c2cc(OC)cc(OC)c2)nc2c1C(=O)c1ccccc1C2=O`: the TGI in the assay with SF-268 CNS, with MDA-MB-231 breast, in the assay with SN12C renal, with MCF7 breast, in the assay on NCI/ADR-RES ovarian and with SNB-19 CNS was > 100 µM in each case. Moreover, the TGI in the assay with HOP-62 NSCLC, in the assay with UACC-62 melanoma, in the assay on DU-145 prostate and in the assay on OVCAR-4 ovarian was > 100 µM each time.
